Measured values reported in ChEMBL document CHEMBL1156451 (J Biol Chem, 2007).
Values after ≈ are worked out from the molar mass of the structure shown. Active and inactive are the calls of the source. No cut-off for these calls is given here. Where a SMILES comes first, the peptide text is derived from it.

Key:
Escherichia coli [1] = assay: Antibacterial activity against Escherichia coli ATCC 25922 after 24 hrs in Mueller-Hinton broth medium; type: functional
Brucella abortus [2] = assay: Antibacterial activity against Brucella abortus 9.19 (per-) after 24 hrs in Mueller-Hinton broth medium; type: functional
[3] = Toxicity in human erythrocytes assessed as hemolysis at 100 ug/ml; type: cell-based, Erythrocyte; conditions: read-out: Activity
Escherichia coli [4] = assay: Antibacterial activity against Escherichia coli K12 ATCC 23716 in 10% Luria-Bertani medium/90% Hepes buffer at pH 7.0; type: functional
Acinetobacter baumannii = assay: Antibacterial activity against Acinetobacter baumannii ATCC 19606 after 24 hrs in Mueller-Hinton broth medium; type: functional
[5] = test system: Bordetella bronchiseptica; assay: Antibacterial activity against Bordetella bronchiseptica CUN 11844-99 after 24 hrs in Mueller-Hinton broth medium; type: functional
Pseudomonas aeruginosa = assay: Antibacterial activity against Pseudomonas aeruginosa CUN 4158-02 after 24 hrs in Mueller-Hinton broth medium; type: functional
Staphylococcus aureus = assay: Antibacterial activity against methicillin-resistant Staphylococcus aureus ATCC 43300 after 24 hrs in Mueller-Hinton broth medium; type: functional
Escherichia coli [6] = assay: Antibacterial activity against Escherichia coli K12 ATCC 23716 after 24 hrs in Mueller-Hinton broth medium; type: functional
Brucella abortus [7] = assay: Antibacterial activity against Brucella abortus 9.49 (per-) after 48 hrs in Mueller-Hinton broth medium; type: functional
HeLa = assay: Cytotoxicity against human HeLa cells at 100 ug/ml after 24 hrs by MTT assay relative to control; type: functional

Compound | MBC (Escherichia coli [1]; ATCC 25922, 24 h) [µg/mL] | MIC (Escherichia coli [1]; ATCC 25922, 24 h) [µg/mL] | MBC (Brucella abortus [2]) [µg/mL] | hemolysis at 100 ug/ml [3] [%] | MBC (Escherichia coli [4]) [µg/mL] | MIC (Escherichia coli [4]) [µg/mL] | MBC (Acinetobacter baumannii; ATCC 19606, 24 h) [µg/mL] | MIC (Acinetobacter baumannii; ATCC 19606, 24 h) [µg/mL] | MBC [5] [µg/mL] | MIC [5] [µg/mL] | MBC (Pseudomonas aeruginosa) [µg/mL] | MIC (Pseudomonas aeruginosa) [µg/mL] | MBC (Staphylococcus aureus; ATCC 43300, 24 h) [µg/mL] | MIC (Staphylococcus aureus; ATCC 43300, 24 h) [µg/mL] | MBC (Escherichia coli [6]; K12, 24 h) [µg/mL] | MIC (Escherichia coli [6]; K12, 24 h) [µg/mL] | MIC (Brucella abortus [7]) [µg/mL] | Activity (HeLa) | other results
CC[C@H](C)[C@H](NC(=O)[C@H](CCCCN)NC(=O)[C@@H](N)CCCCN)C(=O)N[C@@H](CCSC)C(=O)N[C@@H](CCCNC(=N)N)C(=O)N[C@H](C(=O)N[C@@H](Cc1ccccc1)C(=O)N[C@@H](CC(C)C)C(=O)N[C@@H](CCCNC(=N)N)C(=O)N[C@@H](CCCNC(=N)N)C(N)=O)[C@@H](C)O (H-KKIMRTFLRR-NH2) | > 256 | 256 (≈ 190 µM) | < 256 | < 5 | 50 (≈ 37.1 µM) | 25 (≈ 18.5 µM) | > 128 | > 128 | > 256 | > 256 | > 256 | > 256 | > 256 | 256 (≈ 190 µM) | 256 (≈ 190 µM) | 256 (≈ 190 µM) | 128 (≈ 95 µM) | inactive | –
POLYMYXIN B | – | – | 0.5 | – | 3.2 | 2.4 | – | – | 0.5 | 0.5 | 0.25 | 0.25 | – | – | – | – | 0.25 | inactive | MBC (Escherichia coli [1]): 0.5 µg/mL; MIC (Escherichia coli [1]): 0.5 µg/mL; MBC (Acinetobacter baumannii): 0.5 µg/mL; MIC (Acinetobacter baumannii): 0.5 µg/mL; MIC (Staphylococcus aureus): 32 µg/mL; MBC (Escherichia coli [6]): 0.125 µg/mL; MIC (Escherichia coli [6]): 0.125 µg/mL
CC[C@H](C)[C@H](NC(=O)[C@H](CCCNC(=N)N)NC(=O)[C@H](CCCNC(=N)N)NC(=O)[C@H](CC(C)C)NC(=O)[C@H](Cc1ccccc1)NC(=O)[C@@H](NC(=O)[C@H](CCCNC(=N)N)NC(=O)[C@H](CCSC)NC(=O)[C@@H](NC(=O)[C@H](CCCCN)NC(=O)[C@H](CCCCN)NC(=O)[C@H](CO)NC(=O)[C@@H](NC(=O)[C@@H](N)CCCCN)[C@@H](C)CC)[C@@H](C)CC)[C@@H](C)O)C(=O)N[C@@H](CO)C(=O)N[C@@H](CCCCN)C(=O)N[C@@H](CC(=O)O)C(=O)N[C@H](C(=O)N[C@@H](CC(C)C)C(=O)N[C@H](C(=O)NCC(=O)N[C@@H](CCCCN)C(=O)N[C@@H](CCCCN)C(N)=O)[C@@H](C)O)[C@@H](C)CC (H-KISKKIMRTFLRRISKDILTGKK-NH2) | 4 (≈ 1.45 µM) | 4 (≈ 1.45 µM) | 64 (≈ 23.2 µM) | < 5 | 12.5 (≈ 4.53 µM) | 12.5 (≈ 4.53 µM) | 4 (≈ 1.45 µM) | 4 (≈ 1.45 µM) | 1 (≈ 0.362 µM) | 1 (≈ 0.362 µM) | 4 (≈ 1.45 µM) | 4 (≈ 1.45 µM) | > 256 | > 256 | 4 (≈ 1.45 µM) | 4 (≈ 1.45 µM) | 2 (≈ 0.725 µM) | inactive | –
CC[C@H](C)[C@H](N)C(=O)N[C@@H](CO)C(=O)N[C@@H](CCCCN)C(=O)N[C@@H](CCCNC(=N)N)C(=O)N[C@H](C(=O)N[C@@H](CC(C)C)C(=O)N[C@H](C(=O)NCC(=O)N[C@@H](CCCCN)C(=O)N[C@@H](CCCCN)C(=O)O)[C@@H](C)O)[C@@H](C)CC (H-ISKRILTGKK-OH) | > 256 | > 256 | > 256 | < 5 | > 200 | > 200 | > 256 | > 256 | > 256 | > 256 | > 256 | > 256 | > 256 | > 256 | > 256 | > 256 | > 64 | inactive | –
CC[C@H](C)[C@H](NC(=O)[C@H](CCCNC(=N)N)NC(=O)[C@H](CCCCN)NC(=O)[C@H](CO)NC(=O)[C@@H](NC(=O)[C@@H](N)CCCCN)[C@@H](C)CC)C(=O)N[C@@H](CC(C)C)C(=O)N[C@H](C(=O)NCC(=O)N[C@@H](CCCCN)C(=O)N[C@@H](CCCCN)C(=O)O)[C@@H](C)O (H-KISKRILTGKK-OH) | > 256 | > 256 | > 256 | < 5 | > 200 | 200 (≈ 157 µM) | > 256 | > 256 | > 256 | > 256 | > 256 | > 256 | > 256 | > 256 | > 256 | > 256 | > 256 | inactive | –
CC[C@H](C)[C@H](NC(=O)[C@H](CCCCN)NC(=O)[C@H](CCCCN)NC(=O)[C@H](CO)NC(=O)[C@@H](NC(=O)CNC(=O)[C@H](CC(C)C)NC(=O)[C@@H](NC(=O)[C@@H](N)CCCCN)[C@@H](C)CC)C(C)C)C(=O)N[C@@H](CCSC)C(=O)N[C@@H](CCCNC(=N)N)C(=O)N[C@@H](CCCNC(=N)N)C(=O)N[C@H](C(=O)N[C@@H](CO)C(=O)N[C@@H](CCCCN)C(=O)N[C@@H](CC(=O)O)C(=O)N[C@H](C(=O)N[C@@H](CC(C)C)C(=O)N[C@H](C(=O)NCC(=O)N[C@@H](CCCCN)C(=O)N[C@@H](CCCCN)C(N)=O)[C@@H](C)O)[C@@H](C)CC)[C@@H](C)CC (H-KILGVSKKIMRRISKDILTGKK-NH2) | 32 (≈ 12.7 µM) | 32 (≈ 12.7 µM) | > 256 | < 5 | 12.5 (≈ 4.98 µM) | 6.25 (≈ 2.49 µM) | 16 (≈ 6.37 µM) | 16 (≈ 6.37 µM) | 2 (≈ 0.796 µM) | 2 (≈ 0.796 µM) | 64 (≈ 25.5 µM) | 32 (≈ 12.7 µM) | > 256 | > 256 | 16 (≈ 6.37 µM) | 16 (≈ 6.37 µM) | 16 (≈ 6.37 µM) | inactive | –
CC[C@H](C)[C@H](NC(=O)[C@H](CCCNC(=N)N)NC(=O)[C@H](CCCNC(=N)N)NC(=O)[C@H](CC(C)C)NC(=O)[C@H](Cc1ccccc1)NC(=O)[C@@H](NC(=O)[C@H](CCCNC(=N)N)NC(=O)[C@H](CCSC)NC(=O)[C@@H](NC(=O)[C@H](CCCCN)NC(=O)[C@@H](N)CCCCN)[C@@H](C)CC)[C@@H](C)O)C(=O)N[C@@H](CO)C(=O)N[C@@H](CCCCN)C(=O)N[C@@H](CC(=O)O)C(=O)N[C@H](C(=O)N[C@@H](CC(C)C)C(=O)N[C@H](C(=O)NCC(=O)N[C@@H](CCCCN)C(=O)N[C@@H](CCCCN)C(N)=O)[C@@H](C)O)[C@@H](C)CC (H-KKIMRTFLRRISKDILTGKK-NH2) | 64 (≈ 26.3 µM) | 16 (≈ 6.58 µM) | > 256 | < 5 | 32 (≈ 13.2 µM) | 32 (≈ 13.2 µM) | 64 (≈ 26.3 µM) | 8 (≈ 3.29 µM) | 8 (≈ 3.29 µM) | 4 (≈ 1.64 µM) | 128 (≈ 52.6 µM) | 128 (≈ 52.6 µM) | > 256 | > 256 | 32 (≈ 13.2 µM) | 32 (≈ 13.2 µM) | 16 (≈ 6.58 µM) | inactive | –
CC[C@H](C)[C@H](NC(=O)[C@H](CCCNC(=N)N)NC(=O)[C@H](CCCCN)NC(=O)[C@H](CO)NC(=O)[C@@H](NC(=O)CNC(=O)[C@H](CCCNC(=N)N)NC(=O)[C@H](CC(C)C)NC(=O)[C@@H](NC(=O)[C@@H](N)CCCCN)[C@@H](C)CC)C(C)C)C(=O)N[C@@H](CC(C)C)C(=O)N[C@H](C(=O)NCC(=O)N[C@@H](CCCCN)C(=O)N[C@@H](CCCCN)C(N)=O)[C@@H](C)O (H-KILRGVSKRILTGKK-NH2) | > 256 | > 256 | – | < 5 | 100 (≈ 59 µM) | 50 (≈ 29.5 µM) | > 128 | > 128 | > 64 | > 64 | 128 (≈ 75.5 µM) | 128 (≈ 75.5 µM) | > 256 | > 256 | > 128 | > 128 | – | inactive | –
